# Laboratory results: ChEMBL document CHEMBL5352433, “Design, synthesis, and biological evaluation of low-toxic lappaconitine derivatives as potential analgesics” (Eur J Med Chem, 2022)
# System: Mus musculus
# Assay: Analgesic activity against acetic acid-induced Kunming writhing mouse model assessed as inhibition of writhing at 10 mg/kg, sc pretreated with compound for 15 mins followed by acetic acid addition and measured after 15 mins relative to control
# Format: functional
# Conditions: 0.5 h, time 30 min
row,SMILES,inhibition in vivo at 10 mg/kg [%]
1,CCN1C[C@]2(OC(=O)c3ccccc3NS(=O)(=O)c3ccccc3OC)CC[C@H](OC)[C@]34C1[C@H](C[C@H]23)[C@@]1(O)C[C@H](OC)[C@H]2C[C@@H]4[C@]1(O)[C@H]2OC,71.2
2,CCN1C[C@]2(OC(=O)c3ccccc3NS(=O)(=O)c3ccccc3)CC[C@H](OC)[C@]34C1[C@H](C[C@H]23)[C@@]1(O)C[C@H](OC)[C@H]2C[C@@H]4[C@]1(O)[C@H]2OC,84.3
3,CCN1C[C@]2(OC(=O)c3ccccc3NC(=O)c3ccc(N(C)C)cc3)CC[C@H](OC)[C@]34C1[C@H](C[C@H]23)[C@@]1(O)C[C@H](OC)[C@H]2C[C@@H]4[C@]1(O)[C@H]2OC,62.1
4,CCN1C[C@]2(OC(=O)c3ccccc3NS(=O)(=O)c3ccccn3)CC[C@H](OC)[C@]34C1[C@H](C[C@H]23)[C@@]1(O)C[C@H](OC)[C@H]2C[C@@H]4[C@]1(O)[C@H]2OC,71.2

# System: Mus musculus
# Assay: Analgesic activity against sc dosed acetic acid-induced Kunming writhing mouse model assessed as inhibition of writhing pretreated with compound for 15 mins followed by acetic acid addition and measured after 15 mins
# Format: functional
# Conditions: 0.5 h, time 30 min
row,SMILES,ED50 [mg/kg]
1,CCN1C[C@]2(OC(=O)c3ccccc3NS(=O)(=O)c3ccccc3OC)CC[C@H](OC)[C@]34C1[C@H](C[C@H]23)[C@@]1(O)C[C@H](OC)[C@H]2C[C@@H]4[C@]1(O)[C@H]2OC,5.5
2,CCN1C[C@]2(OC(=O)c3ccccc3NS(=O)(=O)c3ccccc3)CC[C@H](OC)[C@]34C1[C@H](C[C@H]23)[C@@]1(O)C[C@H](OC)[C@H]2C[C@@H]4[C@]1(O)[C@H]2OC,6.1
3,CCN1C[C@]2(OC(=O)c3ccccc3NC(=O)c3ccc(N(C)C)cc3)CC[C@H](OC)[C@]34C1[C@H](C[C@H]23)[C@@]1(O)C[C@H](OC)[C@H]2C[C@@H]4[C@]1(O)[C@H]2OC,6.2
4,CCN1C[C@]2(OC(=O)c3ccccc3NS(=O)(=O)c3ccccn3)CC[C@H](OC)[C@]34C1[C@H](C[C@H]23)[C@@]1(O)C[C@H](OC)[C@H]2C[C@@H]4[C@]1(O)[C@H]2OC,4.7

# System: not listed separately
# Assay: Acute toxicity in sc dosed Kunming mouse assessed as mortality rate measured after 24 hrs
# Format: organism-based
# Conditions: in vivo
row,SMILES,LD50 at 24 h [mg/kg]
1,CCN1C[C@]2(OC(=O)c3ccccc3NS(=O)(=O)c3ccccc3OC)CC[C@H](OC)[C@]34C1[C@H](C[C@H]23)[C@@]1(O)C[C@H](OC)[C@H]2C[C@@H]4[C@]1(O)[C@H]2OC,300
2,CCN1C[C@]2(OC(=O)c3ccccc3NS(=O)(=O)c3ccccc3)CC[C@H](OC)[C@]34C1[C@H](C[C@H]23)[C@@]1(O)C[C@H](OC)[C@H]2C[C@@H]4[C@]1(O)[C@H]2OC,> 600
3,CCN1C[C@]2(OC(=O)c3ccccc3NC(=O)c3ccc(N(C)C)cc3)CC[C@H](OC)[C@]34C1[C@H](C[C@H]23)[C@@]1(O)C[C@H](OC)[C@H]2C[C@@H]4[C@]1(O)[C@H]2OC,300
4,CCN1C[C@]2(OC(=O)c3ccccc3NS(=O)(=O)c3ccccn3)CC[C@H](OC)[C@]34C1[C@H](C[C@H]23)[C@@]1(O)C[C@H](OC)[C@H]2C[C@@H]4[C@]1(O)[C@H]2OC,> 400

# System: not listed separately
# Assay: Therapeutic index, ratio of LD50 for acute toxicity in sc dosed Kunming mouse to ratio of ED50 for analgesic activity against sc dosed acetic acid-induced Kunming writhing mouse model
# Format: organism-based
# Conditions: in vivo, read-out: TI
row,SMILES,selectivity ratio
1,CCN1C[C@]2(OC(=O)c3ccccc3NS(=O)(=O)c3ccccc3OC)CC[C@H](OC)[C@]34C1[C@H](C[C@H]23)[C@@]1(O)C[C@H](OC)[C@H]2C[C@@H]4[C@]1(O)[C@H]2OC,54.5
2,CCN1C[C@]2(OC(=O)c3ccccc3NS(=O)(=O)c3ccccc3)CC[C@H](OC)[C@]34C1[C@H](C[C@H]23)[C@@]1(O)C[C@H](OC)[C@H]2C[C@@H]4[C@]1(O)[C@H]2OC,> 98.3
3,CCN1C[C@]2(OC(=O)c3ccccc3NC(=O)c3ccc(N(C)C)cc3)CC[C@H](OC)[C@]34C1[C@H](C[C@H]23)[C@@]1(O)C[C@H](OC)[C@H]2C[C@@H]4[C@]1(O)[C@H]2OC,48.5
4,CCN1C[C@]2(OC(=O)c3ccccc3NS(=O)(=O)c3ccccn3)CC[C@H](OC)[C@]34C1[C@H](C[C@H]23)[C@@]1(O)C[C@H](OC)[C@H]2C[C@@H]4[C@]1(O)[C@H]2OC,> 85.1

# Target: T1, Voltage-gated inwardly rectifying potassium channel KCNH2 (Homo sapiens, UniProt Q12809)
# T1 sequence (Q12809 whole entry): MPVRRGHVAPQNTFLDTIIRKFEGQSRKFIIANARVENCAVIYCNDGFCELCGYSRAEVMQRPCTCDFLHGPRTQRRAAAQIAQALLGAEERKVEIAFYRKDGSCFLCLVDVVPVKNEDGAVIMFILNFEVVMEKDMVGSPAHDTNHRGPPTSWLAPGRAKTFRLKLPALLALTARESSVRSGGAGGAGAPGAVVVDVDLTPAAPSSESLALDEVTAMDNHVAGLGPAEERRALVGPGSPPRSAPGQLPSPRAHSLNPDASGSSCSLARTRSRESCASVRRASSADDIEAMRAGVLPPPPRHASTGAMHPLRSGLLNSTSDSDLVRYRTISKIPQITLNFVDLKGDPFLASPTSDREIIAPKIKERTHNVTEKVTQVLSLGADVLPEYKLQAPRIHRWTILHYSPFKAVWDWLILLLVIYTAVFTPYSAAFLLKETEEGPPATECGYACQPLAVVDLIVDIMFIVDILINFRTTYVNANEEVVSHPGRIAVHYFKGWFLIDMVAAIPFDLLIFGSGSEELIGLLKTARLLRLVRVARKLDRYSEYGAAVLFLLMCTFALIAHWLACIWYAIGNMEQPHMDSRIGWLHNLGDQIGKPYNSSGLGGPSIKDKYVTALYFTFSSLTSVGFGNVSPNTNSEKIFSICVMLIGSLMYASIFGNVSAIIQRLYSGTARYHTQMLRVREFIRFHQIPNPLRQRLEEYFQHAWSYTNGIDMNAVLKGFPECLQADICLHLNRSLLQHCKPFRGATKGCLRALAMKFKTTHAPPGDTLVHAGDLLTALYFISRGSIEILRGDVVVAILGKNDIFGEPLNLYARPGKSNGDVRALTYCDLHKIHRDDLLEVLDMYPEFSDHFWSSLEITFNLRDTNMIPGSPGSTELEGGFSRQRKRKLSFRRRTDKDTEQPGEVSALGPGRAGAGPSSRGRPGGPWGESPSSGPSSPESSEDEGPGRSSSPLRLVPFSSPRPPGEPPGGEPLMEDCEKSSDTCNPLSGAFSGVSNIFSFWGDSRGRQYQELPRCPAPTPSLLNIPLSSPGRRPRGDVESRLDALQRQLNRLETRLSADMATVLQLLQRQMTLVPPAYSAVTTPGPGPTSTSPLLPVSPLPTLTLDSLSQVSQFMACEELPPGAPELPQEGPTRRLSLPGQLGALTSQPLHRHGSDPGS
# Assay: Inhibition of hERG expressed in HEK cells assessed as Rb+ efflux ratio at 1 mg/L incubated for 4 mins (reference value: 79.71 to 94.98 %)
# Format: toxicity, cell-based
# Design: scale not given: the % may be the effect or the level left
# Conditions: at 1 µg/mL
row,SMILES,Activity [%]
1,CCN1C[C@]2(OC(=O)c3ccccc3NS(=O)(=O)c3ccccc3OC)CC[C@H](OC)[C@]34C1[C@H](C[C@H]23)[C@@]1(O)C[C@H](OC)[C@H]2C[C@@H]4[C@]1(O)[C@H]2OC,80.88
2,CCN1C[C@]2(OC(=O)c3ccccc3NS(=O)(=O)c3ccccc3)CC[C@H](OC)[C@]34C1[C@H](C[C@H]23)[C@@]1(O)C[C@H](OC)[C@H]2C[C@@H]4[C@]1(O)[C@H]2OC,88.87
3,CCN1C[C@]2(OC(=O)c3ccccc3NC(=O)c3ccc(N(C)C)cc3)CC[C@H](OC)[C@]34C1[C@H](C[C@H]23)[C@@]1(O)C[C@H](OC)[C@H]2C[C@@H]4[C@]1(O)[C@H]2OC,87.34
4,CCN1C[C@]2(OC(=O)c3ccccc3NS(=O)(=O)c3ccccn3)CC[C@H](OC)[C@]34C1[C@H](C[C@H]23)[C@@]1(O)C[C@H](OC)[C@H]2C[C@@H]4[C@]1(O)[C@H]2OC,95.97

# Target: T1, Voltage-gated inwardly rectifying potassium channel KCNH2
# Assay: Inhibition of hERG expressed in HEK cells assessed as Rb+ efflux ratio at 10 mg/L incubated for 4 mins (reference value: 79.71 to 94.98 %)
# Format: toxicity, cell-based
# Design: scale not given: the % may be the effect or the level left
# Conditions: at 10 µg/mL
row,SMILES,Activity [%]
1,CCN1C[C@]2(OC(=O)c3ccccc3NS(=O)(=O)c3ccccc3OC)CC[C@H](OC)[C@]34C1[C@H](C[C@H]23)[C@@]1(O)C[C@H](OC)[C@H]2C[C@@H]4[C@]1(O)[C@H]2OC,65.13
2,CCN1C[C@]2(OC(=O)c3ccccc3NS(=O)(=O)c3ccccc3)CC[C@H](OC)[C@]34C1[C@H](C[C@H]23)[C@@]1(O)C[C@H](OC)[C@H]2C[C@@H]4[C@]1(O)[C@H]2OC,72.11
3,CCN1C[C@]2(OC(=O)c3ccccc3NC(=O)c3ccc(N(C)C)cc3)CC[C@H](OC)[C@]34C1[C@H](C[C@H]23)[C@@]1(O)C[C@H](OC)[C@H]2C[C@@H]4[C@]1(O)[C@H]2OC,85.86
4,CCN1C[C@]2(OC(=O)c3ccccc3NS(=O)(=O)c3ccccn3)CC[C@H](OC)[C@]34C1[C@H](C[C@H]23)[C@@]1(O)C[C@H](OC)[C@H]2C[C@@H]4[C@]1(O)[C@H]2OC,88.42

# Target: T1, Voltage-gated inwardly rectifying potassium channel KCNH2
# Assay: Inhibition of hERG expressed in HEK cells assessed as Rb+ efflux ratio at 100 mg/L incubated for 4 mins (reference value: 79.71 to 94.98 %)
# Format: toxicity, cell-based
# Design: scale not given: the % may be the effect or the level left
# Conditions: at 100 µg/mL
row,SMILES,Activity [%]
1,CCN1C[C@]2(OC(=O)c3ccccc3NS(=O)(=O)c3ccccc3OC)CC[C@H](OC)[C@]34C1[C@H](C[C@H]23)[C@@]1(O)C[C@H](OC)[C@H]2C[C@@H]4[C@]1(O)[C@H]2OC,50.83
2,CCN1C[C@]2(OC(=O)c3ccccc3NS(=O)(=O)c3ccccc3)CC[C@H](OC)[C@]34C1[C@H](C[C@H]23)[C@@]1(O)C[C@H](OC)[C@H]2C[C@@H]4[C@]1(O)[C@H]2OC,44.12
3,CCN1C[C@]2(OC(=O)c3ccccc3NC(=O)c3ccc(N(C)C)cc3)CC[C@H](OC)[C@]34C1[C@H](C[C@H]23)[C@@]1(O)C[C@H](OC)[C@H]2C[C@@H]4[C@]1(O)[C@H]2OC,84.7
4,CCN1C[C@]2(OC(=O)c3ccccc3NS(=O)(=O)c3ccccn3)CC[C@H](OC)[C@]34C1[C@H](C[C@H]23)[C@@]1(O)C[C@H](OC)[C@H]2C[C@@H]4[C@]1(O)[C@H]2OC,73.6

# System: not listed separately
# Assay: Drug metabolism in sc dosed acetic acid-induced Kunming writhing mouse model assessed as metabolites in urine
# Format: ADME, organism-based
# Conditions: in vivo
row,SMILES,Drug metabolism
1,CCN1C[C@]2(OC(=O)c3ccccc3NS(=O)(=O)c3ccccc3OC)CC[C@H](OC)[C@]34C1[C@H](C[C@H]23)[C@@]1(O)C[C@H](OC)[C@H]2C[C@@H]4[C@]1(O)[C@H]2OC,Metabolite_Detected
2,CCN1C[C@]2(OC(=O)c3ccccc3NS(=O)(=O)c3ccccc3)CC[C@H](OC)[C@]34C1[C@H](C[C@H]23)[C@@]1(O)C[C@H](OC)[C@H]2C[C@@H]4[C@]1(O)[C@H]2OC,Metabolite_Detected
3,CCN1C[C@]2(OC(=O)c3ccccc3NC(=O)c3ccc(N(C)C)cc3)CC[C@H](OC)[C@]34C1[C@H](C[C@H]23)[C@@]1(O)C[C@H](OC)[C@H]2C[C@@H]4[C@]1(O)[C@H]2OC,Metabolite_Detected
4,CCN1C[C@]2(OC(=O)c3ccccc3NS(=O)(=O)c3ccccn3)CC[C@H](OC)[C@]34C1[C@H](C[C@H]23)[C@@]1(O)C[C@H](OC)[C@H]2C[C@@H]4[C@]1(O)[C@H]2OC,Metabolite_Detected

# System: not listed separately
# Assay: Drug metabolism in sc dosed acetic acid-induced Kunming writhing mouse model assessed as metabolites in feces
# Format: ADME, organism-based
# Conditions: in vivo
row,SMILES,Drug metabolism
1,CCN1C[C@]2(OC(=O)c3ccccc3NS(=O)(=O)c3ccccc3OC)CC[C@H](OC)[C@]34C1[C@H](C[C@H]23)[C@@]1(O)C[C@H](OC)[C@H]2C[C@@H]4[C@]1(O)[C@H]2OC,Metabolite_Detected
2,CCN1C[C@]2(OC(=O)c3ccccc3NS(=O)(=O)c3ccccc3)CC[C@H](OC)[C@]34C1[C@H](C[C@H]23)[C@@]1(O)C[C@H](OC)[C@H]2C[C@@H]4[C@]1(O)[C@H]2OC,Metabolite_Detected
3,CCN1C[C@]2(OC(=O)c3ccccc3NC(=O)c3ccc(N(C)C)cc3)CC[C@H](OC)[C@]34C1[C@H](C[C@H]23)[C@@]1(O)C[C@H](OC)[C@H]2C[C@@H]4[C@]1(O)[C@H]2OC,Metabolite_Detected
4,CCN1C[C@]2(OC(=O)c3ccccc3NS(=O)(=O)c3ccccn3)CC[C@H](OC)[C@]34C1[C@H](C[C@H]23)[C@@]1(O)C[C@H](OC)[C@H]2C[C@@H]4[C@]1(O)[C@H]2OC,Metabolite_Detected
